The assay deals with T1, human Gcn5L2 (hsGcn5L2) (Homo sapiens, UniProt Q92830).
T1 construct: gene KAT2A; catalytic domain, amino acids 497–662
Nature of the assay: X-ray crystal structure ([…] Å); Ki from enzyme-coupled acetylation assay on purified catalytic domain. The assay is classed as biochemical.

The source of these data is PMC4932917, “Structural basis for acyl-group discrimination by human Gcn5L2” (Acta Crystallographica. Section D, Structural Biology, 2016).

T1 sequence (Q92830 497-662): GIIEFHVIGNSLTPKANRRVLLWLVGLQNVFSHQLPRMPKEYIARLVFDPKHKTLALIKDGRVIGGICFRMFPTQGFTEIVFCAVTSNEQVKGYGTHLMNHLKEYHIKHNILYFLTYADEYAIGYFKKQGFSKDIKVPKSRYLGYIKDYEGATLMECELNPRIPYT

As to `CCCC(=O)SCCNC(=O)CCNC(=O)[C@H](O)C(C)(C)COP(=O)(O)OP(=O)(O)OC[C@H]1O[C@@H](n2cnc3c(N)ncnc32)[C@H](O)[C@@H]1OP(=O)(O)O` [butyryl-CoA], the affinity corresponds to a Ki of 5.6 ± 0.7 µM.
